Laboratory results taken from PubChem BioAssay AID179 (DTP/NCI, 2004).
pEC50, pIC50: −log10 of the molar value. Active and inactive are the calls of the source.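 How the source made its calls: active means compounds giving half or more protection of infected cells from virus-caused growth loss, again on retest; inactive means the rest.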

System: CEM cells HIV-1 protection, formazan growth assay
Assay: NCI AIDS Antiviral Assay
Conditions: for pIC50: measured here: growth of uninfected CEM cells
Outline: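 Five concentrations of each compound were applied to infected and uninfected human CEM cells. Protection from HIV-1 was judged from growth measured with a soluble formazan assay.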

Row | SMILES | pEC50 | pIC50 | outcome
1 | CC(=O)OCCn1c(Cc2ccc(Cl)cc2)nn(C(C)=O)c1=O | < 3.70 | < 3.70 | 
2 | N#Cc1nc(CCCCCN2C(=O)c3ccccc3C2=O)oc1N | < 3.70 | < 3.70 | 
3 | CC(C)C1/C(=N/O)CC(c2ccccc2)N(N=O)C1c1ccccc1 (stereo not given) | < 3.70 | 4.18 | 
4 | CC(CN)OC12CC3CC(CC(C3)C1)C2 (stereo not given) | < 3.70 | 3.98 | 
5 | Cc1[nH]c(-c2ccccc2)c(O)c1C(=O)OC1CC(C)CCC1C(C)C (stereo not given) | < 3.70 | 4.63 | 
6 | CC(C)OP(=O)(OC(C)C)C(=NCCN=C(NNc1ccc([N+](=O)[O-])cc1)P(=O)(OC(C)C)OC(C)C)NNc1ccc([N+](=O)[O-])cc1 | < 5.14 | < 5.14 | 
7 | COC(=O)C(Cc1ccccc1)NC(=O)c1ccc(CNC(=S)NCc2cccc(CNC(=S)NCc3ccccc3)c2)cc1 (stereo not given) | < 3.70 | 3.83 | 
8 | N#Cc1c(N)nc(Nc2cccc3ccccc23)c(C#N)c1C#N |  |  | inactive
9 | N#CC1C(=O)SC2c3ccccc3C(=O)c3ccccc3C12 (stereo not given) | < 3.70 | 3.88 | 
10 | Cc1ccc(C(=O)NC2C(=O)NC(C(C)C)C(=O)N3CCCC3C(=O)N(C)CC(=O)N(C)C(C(C)C)C(=O)OC2C)c2c1Oc1c(c(C(=O)NC3C(=O)NC(C(C)C)C(=O)N4CCCC4C(=O)N(C)CC(=O)N(C)C(C(C)C)C(=O)OC3C)c3nc(-c4ccccc4)c(=O)oc3c1C)N2 (stereo not given) | < 4.72 | 8.10 | 
11 | CC(C)CCCC(C)[C@H]1CC[C@H]2[C@@H]3CC[C@H]4C[C@@H](CCC=C(c5cc(Cl)c(OC(=O)C(C)(C)C)c(C(=O)O)c5)c5cc(Cl)c(OC(=O)C(C)(C)C)c(C(=O)O)c5)CC[C@]4(C)[C@H]3CC[C@]12C (stereo not given in full) | 4.12 | < 4.00 | 
12 | COc1ccc(NC(=S)N/N=C/c2ccccn2)cc1 | < 5.70 | 6.50 | 
13 | O=C1NC(=O)C(=Cc2cccc(F)c2)C(=O)N1 | < 3.95 | < 3.95 | 
14 | O=C(OC[C@H]1OCC(=O)[C@@]2(OC(=O)c3ccccc3)[C@@H]1[C@H]1C=C[C@@H]2C1)c1ccccc1 |  |  | inactive
15 | COc1ccc(C2=C/C(=C3/C(=O)C=C(C)OC3=O)SS2)cc1 | < 4.00 | < 4.00 | 
16 | O=c1cn[nH]c2c(Br)cc(Br)cc12 | < 4.15 | < 4.15 | 
17 | COC(=O)C([C@H](NC1(c2ccccc2)c2ccccc2-c2ccccc21)C(=O)OC)N(NC(=O)OCc1ccccc1)C(=O)OCc1ccccc1 (mixture of isomers) | < 3.70 | 3.96 | 
18 | CC1(C)C(c2ccccc2)=NN(O)c2ccccc21 |  |  | inactive
19 | CCOc1ccccc1NC(=O)/C(=N\NC(C)(C)C)C1C(=O)Nc2ccccc2S1=O (stereo not given) | < 3.95 | 4.75 | 
20 | N#CC1(N2CCCC2)CCC2(CC1)OCCO2 |  |  | inactive
21 | CCCCCC[P+](c1ccccc1)(c1ccccc1)c1ccccc1 | < 3.70 | 6.13 | 

Row | SMILES | pEC50 | pIC50 | outcome
22 | COc1cc(N=Nc2cc(NC(C)=O)c(N=Nc3ccc(S(=O)(=O)O)cc3)cc2S(=O)(=O)O)c(C)cc1N=Nc1ccc(NC(=O)c2ccc(N)cc2)cc1C | 5.06 | 4.01 | 
23 | CCOC(=O)C(C(=O)OCC)C(C(=O)OCC)(C(=O)OCC)C(C(=O)OCC)C(=O)OCC |  |  | inactive
24 | O=C1CCCC12CCOC2=O (stereo not given) | < 2.79 | < 2.79 | 
25 | CC1(C)COC(c2ccccc2Cl)N1 (stereo not given) |  |  | inactive
26 | CCc1cccc(C(C)CC)c1NC(=O)C(=O)C(CC(=O)Nc1ccc(Cl)c(Cl)c1)C(=O)OC (stereo not given) | < 3.73 | < 3.73 | 
27 | C(=N\Nc1ccc2ccccc2n1)/c1ccccn1 | < 4.70 | 5.96 | 
28 | NC(=O)c1ncn2c(=O)n(CCCl)nnc12 | < 2.99 | 4.61 | 
29 | COc1ccc(/C=C(\C#N)c2ccccc2[N+](=O)[O-])cc1 | < 3.70 | 4.90 | 
30 | CN(C)c1nc(=NCc2cccnc2)ss1 | < 3.70 | 4.94 | 
31 | N#CC(C#N)=CNC(=S)Nc1ccc(Cl)c(Cl)c1 | < 3.70 | 4.82 | 
32 | CC1=C2CC[C@@]3(C)C(=CCC3O)C2(C)CCC1=O (stereo not given in full) |  |  | inactive
33 | CN(C)CCCSc1c2ccccc2nc2cc(NCC(=O)Nc3ccccc3-c3ccccc3NC(=O)CNc3ccc4c(SCCCN(C)C)c5ccccc5nc4c3)ccc12 | < 3.91 | 4.23 | 
34 | O=C1CC(c2ccoc2)NC(=O)N1CCCl (stereo not given) | < 3.70 | < 3.70 | 
35 | O=C1Nc2ccccc2/C1=C/c1cc(Cl)cc(Cl)c1O (tested in a mixture with another compound) | < 3.70 | 4.35 | 
36 | COC(=O)[C@@H]1C[C@@]2(C3C=CN(C(=O)C(F)(F)F)C=C3)c3ccccc3N(C(=O)C(F)(F)F)[C@H]2N1C(=O)OC | < 3.70 | 3.78 | 
37 | N#Cc1cccc(/C=C2\Cc3ccccc3C2=O)c1 | < 5.23 | < 5.23 | 
38 | COc1ccc(/C=C/C(CC(NO)c2ccc(OC)cc2)=N\O)cc1 (stereo not given) | < 3.70 | < 4.00 | 
39 | CC(=O)N1CN=C2Sc3ccccc3N2C1 | < 3.70 | < 3.70 | 
40 | Nc1ncnc2c1ncn2[C@H]1C(CO)[C@@H](CO)C12SCCCS2 (stereo not given in full) | < 3.72 | < 3.72 | 
41 | O=S1c2ccccc2N=C(c2ccc3ccccc3c2)CC1c1ccccc1F (stereo not given) | < 4.74 | < 4.74 | 
42 | O=C1C=CC(c2ccccc2)(c2ccccc2)O1 | < 3.70 | 3.82 | 

Row | SMILES | pEC50 | pIC50 | outcome
43 | COC(=O)/C=C(\C(=O)OC)c1cc(C)c2cc(C(C)C)ccc(C)c1-2 | < 3.70 | 4.55 | 
44 | COc1cc(/C=C2\CCc3ccccc3C2=O)cc(OC)c1OC | < 4.51 | 5.01 | 
45 | CCOC(=O)C(C)NC(=O)N(C)C12CC3CC(CC(C3)C1)C2 (stereo not given) | < 3.70 | 3.82 | 
46 | Cn1c(=O)c2c(nc3[nH]c(=O)c(Br)cn32)n(C)c1=O | < 4.00 | 4.69 | 
47 | COc1ccc2c3c([nH]c2c1[N+](=O)[O-])C(C)N(Cc1ccc([N+](=O)[O-])cc1)CC3 (stereo not given) |  |  | inactive
48 | O=C(Nc1cc(Cl)c(Cl)cc1NC(=O)C(Cl)(Cl)Cl)C(Cl)(Cl)Cl | < 3.70 | 6.38 | 
49 | O=CNC(CSSCC(NC=O)C(=O)O)C(=O)O (stereo not given) | < 3.70 | < 3.70 | 
50 | O=C1/C(=C\c2ccc(O)cc2)CCC/C1=C/c1ccc(Cl)c(Cl)c1 | < 3.70 | 5.95 | 
51 | O=[N+]([O-])C(=C1Nc2ccccc2N1)C(Cl)=C(Cl)Cl | < 3.70 | 3.98 | 
52 | CCC(=O)c1c(NOC2OCC(OC(C)=O)C(OC(C)=O)C2OC(C)=O)nc(OC)n(C)c1=O (stereo not given) | < 4.27 | < 4.27 | 
53 | CC(C)=CCCC(O)C1CCC2C3CCC4CCCCC4(C)C3CCC12C (stereo not given) | < 4.00 | 4.06 | 
54 | C=CCn1c(=N)/c(=C(\N)O)s/c1=C1/SC(=S)N(c2ccc(C)cc2)C1=O | < 5.17 | < 5.17 | 
55 | CCCc1c(O)c2ccccc2[nH]c1=O | < 3.70 | < 3.70 | 
56 | COc1cc(C(C)O)c[n+](Cc2ccccc2)c1 (stereo not given) | < 3.52 | < 3.52 | 
57 | CC(C)CCC[C@@H](C)C1CCC2[C@@H]3CC=C4C[C@@H](OC(=O)CCC(=O)NCC[N+](C)(C)CCCS(=O)(=O)[O-])CC[C@]4(C)C3CC[C@@]21C (stereo not given in full) |  |  | inactive
58 | Cc1c2ccccc2nc(CN2CCCCC2)[n+]1[O-] | < 3.70 | < 3.70 | 
59 | CC(=O)OCC1OC(N2C(=O)NC(=O)C3C=C4CCCCC4=CC32)CC1OC(C)=O (stereo not given) | < 3.70 | 3.93 | 
60 | Cc1ccc(SC/C(=C\CS(=O)(=O)c2ccc(C)cc2)S(=O)(=O)c2ccc(Br)cc2)cc1 |  |  | inactive
61 | N#CC1(C#N)C2=C(CCCC2)NC(c2ccc(Br)cc2)C1(C#N)C#N (stereo not given) | < 6.70 | 7.09 | 
62 | COC(=O)[C@@H]1C[C@]2(Br)c3ccccc3N(S(=O)(=O)c3ccccc3)[C@@H]2N1C(=O)OC | < 3.70 | 3.86 | 
63 | Cc1cc(Cc2c(F)c(F)c(Cc3cc(C)no3)c(F)c2F)on1 | < 4.00 | < 4.00 | 

Row | SMILES | pEC50 | pIC50 | outcome
64 | COC(=O)c1cc(Br)c(C(=O)C(Cl)(Cl)Cl)[nH]1 | < 3.70 | < 3.70 | 
65 | COc1ccc2c(c1)O[C@]1(O)c3cc4c(cc3O[C@@H]1C2)OCO4 | < 4.92 | < 4.92 | 
66 | COC(=O)c1ccc(SSc2ccc(C(=O)OC)cc2[N+](=O)[O-])c([N+](=O)[O-])c1 |  |  | inactive
67 | CN(C)CCNC(=O)Cn1cnc2cccc([N+](=O)[O-])c2c1=O | < 3.70 | < 3.70 | 
68 | O=[N+]([O-])c1cnc(-c2ccc(F)cc2)n1CCO | < 3.70 | < 3.70 | 
69 | O=C1CCC[C@]2(CCC[C@@H](O)C2)N1 | < 3.70 | < 3.70 | 
70 | COc1ccc(C=C(C(=O)c2ccccc2)C(=O)c2ccccc2)cc1 | < 4.68 | < 4.68 | 
71 | CN(C)Cc1cc(C(=O)/C=C/c2ccccc2)cc(CN(C)C)c1O | < 3.70 | 4.60 | 
72 | COC(=O)C1Cc2c([nH]c3ccccc23)C(c2ccccc2O)N1 (stereo not given) |  |  | inactive
73 | COC(=O)C1(c2ccc(N(C)C)cc2OC)CCCN(C(=O)Oc2ccccc2[N+](=O)[O-])CCc2c1[nH]c1ccccc21 (stereo not given) | < 3.70 | < 3.70 | 
74 | COc1ccc(/C=C(\C#N)c2ccc([N+](=O)[O-])cc2)cc1[N+](=O)[O-] | 3.74 | 3.71 | 
75 | Cc1ccc(S(=O)(=O)N2CCCCN(S(=O)(=O)c3ccc(C)cc3)Cc3ccccc3OCCOCCOc3c4cccc3Cc3cccc5c3OCCOCCOc3ccccc3CN(S(=O)(=O)c3ccc(C)cc3)CCCN(S(=O)(=O)c3ccc(C)cc3)Cc3ccccc3OCCOCCOc3c(cccc3C4)Cc3cccc(c3OCCOCCOc3ccccc3C2)C5)cc1 | < 4.00 | < 4.00 | 
76 | CC(C)=CCC/C(C)=C/COC(C)(C)C1=CCC(C)CC1 (stereo not given) (tested in a mixture with another compound) | < 3.70 | < 3.70 | 
77 | COc1cc(Cc2cnc(N)nc2N)cc(OC)c1OC | < 3.70 | < 3.70 | 
78 | CNn1c(C)n[nH]c1=O | < 3.70 | < 3.70 | 
79 | Cc1cc2nc(N)n[n+]([O-])c2cc1C | < 3.70 | < 3.70 | 
80 | C=CCOc1ccc(/C(N=Nc2ccc(C)cc2)=N/NC(=O)c2ccccc2)cc1OC | < 3.70 | 5.00 | 
81 | CC1(C)OC(=O)CC12CCN(Cc1ccccc1)CC2 | < 3.70 | 3.71 | 
